Literature values in patent US4746659A, “Diastereomers of 10-alkyl-10-deazaminopterins and process for preparing the same” (priority 1985, dated 1988).

Tested on: leukemia, as well as other malignancies, including ascitic tumors
Conditions: warm-blooded lower animals; cited from earlier work

In the case of Nc1nc(N)c2nc(CCc3ccc(C(=O)NC(CCC(=O)O)C(=O)O)cc3)cnc2n1 (stereo not shown) [10-deazaminopterin], the “amelioration of leukemia and other malignancies, including ascitic tumors” value is given as “can be ameliorated”.
